Laboratory results published in patent publication US20120164104A1, “Composition and Methods of Treating Viral Infections and Viral Induced Tumors” (Chimerix, Inc., priority 2009, published 2012).

Legend:
[1] = test system: tumor cell lines; assay: Cell proliferation assay (MTS or SRB), panel of human tumor cell lines; type: cell-based; conditions: 22 tumor cell lines, read-out: IC50 values in the tumor cell lines (range over panel)
Method: The cell growth inhibitory activities of CMX001, Cidofovir, and a standard agent (varies depending on the tumor type of the cell lines) were evaluated in a panel of cell lines derived from multiple tumor types using a MTS or SRB based cell proliferation assay.
In vitro cell proliferation assays were performed using a 96-well plate based MTSassay (CellTiter 96° AqueousOne Solution Cell Proliferation Assay, Promega) or SRB (Sulforhodamine-B) assay (1-3). Briefly, cells were plated in 100 μl medium on day 0 in 96-well microtiter plates (Falcon #3072). […]
After incubation for 3 days at 37° C. in a humidified incubator, viable cells were measured either by MTS or SRB assay. For MTS assay, 20 μl of a 20:1 mixture of (3-(4,5-dimethylthiazol-2-yl)-5-(3-carboxymethoxyphenyl)-2-(4-sulfophenyl)-2H-tetrazolium, inner salt (MTS, 2 mg/ml) and an electron coupling reagent, phenazine methosulfate (PMS, 0.92 mg/ml in DPBS), was added to each well and incubated for 3 hours at 37° C. Absorbance was measured using a BioTek Synergy™ HT Multiple Detection microplate reader at 490 nm. For SRB assay, cells were fixed in situ with 50 μL of cold trichloroacetic acid (TCA, final concentration at 10% w/v) for 60 minutes. Cells were then washed 5 times with H2O and air-dried. […]
Raw data were acquired using a BioTek Synergy™ HT Multiple Detection microplate reader and imported into Microsoft Excel for analysis. […]

[2] = test system: H460; assay: Cell proliferation assay (MTS or SRB), H460; type: cell-based; conditions: Homo sapiens, NCI-H460, 72 h; H460, Lung, 3 days; read-out: IC50 (cell growth inhibition)
Method: (§1) In vitro cell proliferation assays were performed using a 96-well plate based MTSassay (CellTiter 96° AqueousOne Solution Cell Proliferation Assay, Promega) or SRB (Sulforhodamine-B) assay (1-3). Briefly, cells were plated in 100 μl medium on day 0 in 96-well microtiter plates (Falcon #3072). On day 1, 10 μl of serial dilutions of each compound (Nine 1:2 dilutions with a starting concentration of 100 μM; in some cases, a starting concentration of 400 μM (CMX001 or Cidofovir) or 1 μM (some standard agents)) were added in triplicates to the plates. For standard agents using DMSO as solvent, serial dilutions of DMSO with a starting concentration of 0.5% were also included as a vehicle control.
(§2) After incubation for 3 days at 37° C. in a humidified incubator, viable cells were measured either by MTS or SRB assay. For MTS assay, 20 μl of a 20:1 mixture of (3-(4,5-dimethylthiazol-2-yl)-5-(3-carboxymethoxyphenyl)-2-(4-sulfophenyl)-2H-tetrazolium, inner salt (MTS, 2 mg/ml) and an electron coupling reagent, phenazine methosulfate (PMS, 0.92 mg/ml in DPBS), was added to each well and incubated for 3 hours at 37° C. Absorbance was measured using a BioTek Synergy™ HT Multiple Detection microplate reader at 490 nm. For SRB assay, cells were fixed in situ with 50 μL of cold trichloroacetic acid (TCA, final concentration at 10% w/v) for 60 minutes. Cells were then washed 5 times with H2O and air-dried.
(§3) Next, cells were stained with 20 μL of 0.2% SRB in 1% acetic acid and incubated at room temperature for 30 minutes and unbound SRB was removed by washing 5 times with 1% acetic acid and air-dried. Finally, bound SRB stain was solubilized in 50 μL of 50 μM Tris buffer before taking an optical density measurement at 570 nm using the BioTek microplate reader. The growth inhibition data were expressed as the percentage of cell survival calculated from the background corrected absorbance. The surviving fraction of cells was determined by dividing the mean absorbance values of the test agent-treated samples by the mean absorbance values of untreated control. […]

[3] = test system: COS-7 cells; assay: DNA replication of uninfected COS-7 cells (BrdU assay); type: cell-based; conditions: Chlorocebus aethiops
Method: FIG. 14 illustrates the effect of increasing concentrations of CMX001 on replication of COS-7 cells. DNA replication was determined by BrdU incorporation. Medium with indicated CMX001 concentrations was added to COS-7 cells and absorbance measured 72 h post seeding. Absorbance for untreated cells was set as 100%. DNA synthesis was quantified by the colorimetric measurement of BrdU incorporation into DNA in proliferating cells using the ‘Cell proliferation ELISA, BrdU’ kit (Roche). COS-7 cells were seeded in 96 well plates and CMX001 was added at indicated concentrations. Absorbance at 450 nm (sample) and at 650 nm (background) was determined 2 h after addition of the substrate.

[4] = test system: Caki-1; assay: Cell proliferation assay (MTS or SRB), Caki-1; type: cell-based; conditions: Homo sapiens, 72 h; Caki-1, Kidney, 3 days; read-out: IC50 (cell growth inhibition)
Method: as §1, §2, §3

[5] = test system: Hep G2; assay: Cell proliferation assay (MTS or SRB), Hep G2; type: cell-based; conditions: Homo sapiens, HepG2, 72 h; Hep G2, Liver, 3 days; read-out: IC50 (cell growth inhibition)
Method: as §1, §2, §3

[6] = test system: PANC-1; assay: Cell proliferation assay (MTS or SRB), PANC-1; type: cell-based; conditions: Homo sapiens, 72 h; PANC-1, Pancreatic, 3 days; read-out: IC50 (cell growth inhibition)
Method: as §1, §2, §3

[7] = test system: MCF-7; assay: Cell proliferation assay (MTS or SRB), MCF-7; type: cell-based; conditions: Homo sapiens, MCF7, 72 h; MCF-7, Breast, 3 days; read-out: IC50 (cell growth inhibition)
Method: as §1, §2, §3

[8] = test system: A2058; assay: Cell proliferation assay (MTS or SRB), A2058; type: cell-based; conditions: Homo sapiens, 72 h; A2058, Skin (melanoma), 3 days; read-out: IC50 (cell growth inhibition)
Method: as §1, §2
Next, cells were stained with 20 μL of 0.2% SRB in 1% acetic acid and incubated at room temperature for 30 minutes and unbound SRB was removed by washing 5 times with 1% acetic acid and air-dried. Finally, bound SRB stain was solubilized in 50 μL of 50 μM Tris buffer before taking an optical density measurement at 570 nm using the BioTek microplate reader. The growth inhibition data were expressed as the percentage of cell survival calculated from the background corrected absorbance. The surviving fraction of cells was determined by dividing the mean absorbance values of the test agent-treated samples by the mean absorbance values of untreated control.
Raw data were acquired using a BioTek Synergy™ HT Multiple Detection microplate reader and imported into Microsoft Excel for analysis. The average signal of each treatment was calculated from the triplicates after subtracting the blank signals. The percentage survival values were calculated using the following formula: % survival=(average signal of the drug treatment/average signal of untreated controls)×100. The data were finally imported into the Prism 4 software (GraphPad Software, San Diego, Calif.) to generate the dose-activity curves using non-linear regression curve fit and to calculate the IC50 values.

[9] = test system: C33A; assay: Cell proliferation assay (MTS or SRB), C33A; type: cell-based, human; conditions: Homo sapiens, C-33-A, 72 h, Cervical, 3 days, read-out: IC50 (cell growth inhibition)
Method: as §1, §2, §3

[10] = test system: COS-7 cells; assay: Metabolic activity of uninfected COS-7 cells (WST-1 assay); type: cell-based
Method: Metabolic activity was examined as WST-1 cleavage. Medium with indicated CMX001 concentrations was added to COS-7 cells and absorbance measured 72 h post seeding. Absorbance for untreated cells was set as 100%. The metabolic activity was monitored by the colorimetric WST-1 assay (Roche) of the mitochondrial dehydrogenases in viable cells. COS-7 cells were seeded in 96 well plates and CMX001 was added at indicated concentrations. The WST-1 cleavage product was measured at 450 nm (sample) and at 650 nm (background). WST-1 plus medium alone served as blank.

[11] = test system: BKV(Dunlop); conditions: BKV-infected RPTECs, Bernhoff et al., 2008, cited from earlier work

Compound	IC50 [1]	IC50 [2]	IC50 [3]	IC50 [4]	IC50 [5]	IC50 [6]	IC50 [7]	IC50 [8]	IC50 [9]	loss of metabolic activity ([10]; CMX001 0.6 μM, COS-7)	IC50 ([10]; Chlorocebus aethiops, uninfected COS-7 cells)	concentration of CDV inhibiting BKV (IC90) [11]	IC90 ([11]; read-out: concentration of CDV inhibiting BKV (IC90))
CCCCCCCCCCCCCCCCOCCCOP(=O)(O)CO[C@H](CO)Cn1ccc(N)nc1=O [CMX001]	6.6 to 100 µM	12.4 µM	~0.6 µM	68.6 µM	37.9 µM	91.5 µM	62 µM	21.7 µM	14.3 µM	17%	~5 µM		
Nc1ccn(C[C@@H](CO)OCP(=O)(O)O)c(=O)n1 [cidofovir]		> 100 µM		> 100 µM	> 100 µM	> 100 µM	> 100 µM	> 100 µM	96.7 µM			40 µg/mL	127 µM
